The source made the active and inactive calls.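 The calls were made as follows: active = AC50 no more than ten times the top concentration tested, that is within one log above it; inconclusive = flat curve fit with activity between 30% and 70%, or invalid poor fit; inactive = AC50 beyond ten times the top tested dose.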
Tested on: S. cerevisiae Mot1-301 ts growth rescue, BacTiter-Glo ATP luminescence
Test: restored Mot1-301 yeast growth at 38.5C – whole organism, S. cerevisiae, Mot1-301 ts mutant, luminescence, dose retest, SUMOylation pathway inhibitor project, confirmation (AID 463204);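 also: growth at restrictive 38.5 degrees C of Mot1-301 OY566 strain; actives raise luminescence by restoring growth of the ts mutant at high temperature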

SMILES | AC50
Cc1cc(Br)ccc1NC(=O)c1cnc(N2CCN(c3ccccn3)CC2)c2ccccc12 | > 42 µM (inactive)
O=C1c2ccccc2C(=O)N1CCCCSc1nc2ccccc2c(=O)n1CCCN1CCOCC1 | > 42 µM (inactive)
COc1ccc(C2C(C(C)=O)=C(O)C(=O)N2CCO)c(OC)c1 (stereo unspecified) | > 42 µM (inactive)
CN(C)C(=O)CNC(=O)C1CCCCC1 | > 42 µM (inactive)
COC(=O)c1ccc(N2C(=O)CC(NCc3ccccc3)C2=O)cc1 (stereo unspecified) | > 42 µM (inactive)
COc1cc(/C=N/NC2=NS(=O)(=O)c3ccccc32)cc(OC)c1OC | > 42 µM (inactive)
CCS(=O)(=O)c1nc(S(=O)(=O)c2ccc(Cl)cc2)c(N2CCc3ccccc3C2)s1 | > 42 µM (inactive)
COC(=O)c1ccccc1NC(=O)c1cnn2c(C)cc(C)nc12 | > 42 µM (inactive)
Cc1ccc(Oc2ccc(OCC(=O)Nc3ccncc3)cc2)cc1 | 23.5 µM
Cc1cccc(OCCC(=O)Nc2ccc(F)c(F)c2)c1 | > 42 µM (inactive)
O=C(COc1ncnc2ccccc12)Nc1ccc(Cl)c(S(=O)(=O)N2CCOCC2)c1 | > 42 µM (inactive)
O=C(Nc1nccs1)c1ccc(S(=O)(=O)c2ccccc2)cc1 | > 42 µM (inactive)
O=C(O)c1ccc(N=C2NC(=O)C(CO)(CO)S2)cc1 | > 42 µM (inactive)
NC(=O)CC(NC(=O)Cc1cccc2ccccc12)c1ccc(NCCCN2CCCC2=O)c([N+](=O)[O-])c1 (stereo unspecified) | > 42 µM (inactive)
C[C@H](NC(=O)OC(C)(C)C)C(=O)NCC1CCC(C(=O)N[C@@H](Cc2ccccc2)C(=O)O)CC1 (stereo partly specified) | > 42 µM (inactive)
Cc1ccc(/C=C/C(=O)c2ccc([N+](=O)[O-])o2)cc1 | 3.5 µM
Cc1ccccc1C(=O)/C=C1\NC(=O)CS1 | > 21 µM (inactive)
O=C(CSc1nccc(=O)[nH]1)c1cc2ccccc2o1 | > 42 µM (inactive)
Cc1cccn2c(=O)c3cc(C(=O)NCc4cccnc4)c(=N)n(C(C)C)c3nc12 | > 42 µM (inactive)
O=C(CCCC(=O)N(CC(=O)NC1CCCC1)c1cccc(F)c1)Nc1ccccn1 | > 42 µM (inactive)
Cc1ccc(S(=O)(=O)NC2CCCCCCC2)cc1 | 18.1 µM
CCS(=O)(=O)N1CCCC(C(=O)NCc2cccnc2)C1 (stereo unspecified) | > 42 µM (inactive)
CCN1C(=O)N(C)[C@@H](c2ccccc2)C(C(=O)OC)=C1C | > 42 µM (inactive)
CC1CCCCC1N=CC1=C(O)CC(C)(C)CC1=O (stereo unspecified) | > 42 µM (inactive)

SMILES | AC50
CCOC(=O)c1oc2ccccc2c1COC(=O)CNC(=O)c1cccc(C)c1 | > 42 µM (inactive)
Cc1ccc(NC(=O)COC(=O)c2csc3c2CCC(C)C3)cc1S(=O)(=O)N1CCCCC1 (stereo unspecified) | > 42 µM (inactive)
COCCn1c(SCC(=O)NCc2cccs2)nnc1-c1ccc(OC)cc1 | > 42 µM (inactive)
C/C(=N\NC(=S)Nc1ccccc1)C1Cc2ccccc2C(=O)O1 (stereo unspecified) | > 42 µM (inactive)
N=c1ncn(CC(O)CO)c2nc(N3CCOCC3)[nH]c12 (stereo unspecified) | > 42 µM (inactive)
CCOc1ccc(S(=O)(=O)N2CCC(C(=O)N3CCN(c4ccccc4)CC3)CC2)cc1 | > 42 µM (inactive)
COc1ccc(NS(=O)(=O)c2ccc(OCC(=O)N3CCOCC3)cc2)cc1Cl | > 42 µM (inactive)
COC(=O)c1ccc(Cl)c(NC(=O)CN(c2ccc(OC)c(OC)c2)S(C)(=O)=O)c1 | > 42 µM (inactive)
CC1CCN(CCCCOc2cccc(Br)c2)CC1 | > 42 µM (inactive)
Cn1c(NCc2ccco2)nc2c1c(=O)n(Cc1ccc(Cl)cc1)c(=O)n2C | > 42 µM (inactive)
O=C1OCc2cc(NS(=O)(=O)c3cccs3)ccc21 | > 42 µM (inactive)
CC1=Nc2ccc(C)cc2N(Cc2ccccc2)C(=O)C1 | > 42 µM (inactive)
O=C1CC(=O)C(n2cncn2)C(c2ccc(Cl)cc2Cl)C1 (stereo unspecified) | > 42 µM (inactive)
CCCCc1ccc(NC(=S)NCc2cccs2)cc1 | 41.9 µM
COCC(C)n1c(-c2ccc3c(c2)NC(=O)CO3)csc1=Nc1ccc(OC(F)F)cc1 (stereo unspecified) | 25.2 µM
CCc1cccc(C)c1NC(=O)CSc1nnc(-c2cc3cc(Br)ccc3o2)n1CC | > 42 µM (inactive)
CCC(C)[C@H](NC(=O)Nc1ccc(S(N)(=O)=O)cc1)C(=O)OC (stereo partly specified) | > 42 µM (inactive)
COc1ccccc1CC(=O)N1CCN(S(=O)(=O)c2ccccc2)CC1 | > 42 µM (inactive)
Cc1nc2c3ccccc3nc(NNC(=O)CCC(=O)N3CCCC(C)C3)n2n1 (stereo unspecified) | > 42 µM (inactive)
COc1ccc(CCN2CC(C(=O)N(C)CC(=O)Nc3cccc(F)c3)CC2=O)cc1OC (stereo unspecified) | > 42 µM (inactive)
Cc1ccc(-n2c(C)cc(/C=N/NC(=O)c3ccncc3)c2C)cc1C | > 42 µM (inactive)
COc1cc(/C=N/n2c(C3CCCCC3)n[nH]c2=S)cc(OC)c1O | > 42 µM (inactive)
Cc1ccccc1C(=O)NN(C)c1nc2ccccc2nc1C(F)(F)F | > 42 µM (inactive)
Cc1ccc(S(=O)(=O)N(C)c2ccc(OC(=O)CN3C(=O)NC4(CCCC4)C3=O)cc2)cc1C | > 42 µM (inactive)

SMILES | AC50
CCNCc1nc2cc(Cl)ccc2c(=O)[nH]1 | > 42 µM (inactive)
Cc1nc(-c2cccc(S(=O)(=O)N3CCOCC3)c2)cs1 | > 42 µM (inactive)
Cc1ccc2nc(N/N=C/c3ccccc3F)nc(-c3ccccc3)c2c1 | > 42 µM (inactive)
O=C(COC(=O)c1ccc([N+](=O)[O-])o1)Nc1ncc(Cl)cc1Cl | 9.48 µM
CCCOc1ccccc1C1NC(=O)NC(C)=C1C(=O)OCc1ccccc1 (stereo unspecified) | > 42 µM (inactive)
COc1ccc(-c2nnc(SCC(=O)N3CCCCC3)o2)cc1 | > 42 µM (inactive)
CCn1nc(C(=O)OCc2cccc(S(=O)(=O)N(C)C)c2)c2ccccc2c1=O | > 42 µM (inactive)
CC1(C)NC(=O)N(CCCOc2ccccc2Br)C1=O | > 42 µM (inactive)
O=C(C1CCC(CNc2c(N3CCCCC3)c(=O)c2=O)CC1)N1CCN(C2CCCCC2)CC1 (stereo unspecified) | > 42 µM (inactive)
C[C@H]1CN=C(Nc2ccccc2)N1CCC1CCCC1 | > 42 µM (inactive)
N/C(=N\OC(=O)CCC1CCCC1)c1ccc([N+](=O)[O-])cc1 | > 42 µM (inactive)
CN(C)c1ccc(C(=O)N2CCCC(CCC(=O)N3CCN(c4ccccn4)CC3)C2)cc1 (stereo unspecified) | > 42 µM (inactive)
COc1cc(SC)ccc1C(=O)Nc1cc(C)c(OCC(=O)N2CCOCC2)c(C)c1 | > 42 µM (inactive)
Cc1ccccc1CSc1n[nH]c(NS(=O)(=O)c2ccccc2)n1 | > 21 µM (inactive)
COc1ccc(N2C(=O)CSC23CCCCC3)cc1 | > 42 µM (inactive)
CCN(CC)c1ccc(C=C2C(=O)OC(c3ccccc3)OC2=O)cc1 (stereo unspecified) | > 42 µM (inactive)
COc1cccc(-c2ocnc2C(=O)Nc2ccc3c(c2)CCC3)c1 | > 42 µM (inactive)
Cc1cccc(N(C(=O)c2ccc(CN3CCOCC3)o2)C(C(=O)NC2CCCCC2)c2ccc(F)cc2)c1 (stereo unspecified) | > 42 µM (inactive)
CC1(C)c2[nH]c3ccccc3c2C[C@H]2C(=O)N(Cc3cccc(F)c3)C(=O)N21 | > 42 µM (inactive)
OCCN1CN=C(Nc2nc3ccccc3o2)NC1 | > 42 µM (inactive)
CC12CCC(=O)N1C(C(=O)Nc1ccccc1F)CS2 (stereo unspecified) | > 42 µM (inactive)
CC1CCCC(N2C(=O)NC(NC(=O)c3ccco3)(C(F)(F)F)C2=O)C1C (stereo unspecified) | > 42 µM (inactive)
COC(=O)c1ccc2[nH]c(C(C)(C)O)c(C)c2c1 | > 42 µM (inactive)

Source: PubChem BioAssay AID463204 (Broad Institute, 2010)
